SMILES strings stand for the structures.

The term Dmax denotes the greatest extent of degradation seen.

The assay addresses KRas (Homo sapiens, UniProt P01116, G12C). Briefly: KRas degradation in NCI-H2030 cells by Western blot, normalized to GAPDH (data of Table 14). The assay is classed as cell-based. On the set-up: host or cells: NCI-H2030. The following applies: for Dmax: NCI-H2030. The method, then:
Cell Lines, Antibodies, and Reagents. NCI-H2030 (CRL-5914) and SW1573 (CRL-2170) cells were purchased from ATCC. Both cell lines are homozygous for the G12C mutation in KRas. NCI-H2030 cells were cultured in RPMI-1640 medium containing 1% penicillin-streptomycin and 10% fetal bovine serum (FBS). SW1573 cells were cultured in DMEM containing 1% penicillin-streptomycin and 10% FBS. The KRas detection antibody (Cat. No. LS-C175665) was purchased from LifeSpan Biosciences and was used at a dilution of 1:2000. GAPDH was detected using an antibody purchased from Cell Signaling Technology (Cat. No. 5174) and was diluted 1:3000. Secondary anti-mouse and anti-rabbit detection antibodies were purchased from Cell Signaling Technology (Cat. Nos. 7076 and 7074, respectively).
Compound Treatment and Western Blotting of the Data of Table 14. Either NCI-H2030 or SW1573 cells were plated in 12-well plates and allowed to adhere overnight at 37° C. in an incubator containing 5% CO2. The following day, the medium was replaced with the appropriate medium lacking FBS to induce starvation. Cells were returned to the incubator for an additional 24 hours following media exchange. […] Cells were treated with VHL-based compounds for 24 hours and all other compounds for 72 hours. Following treatment, cells were lysed in RIPA buffer (Thermo Fisher Cat. No. 89900) containing phosphatase (Thermo Fisher Cat. No. 1861277) and protease (Thermo Fisher Cat. No. 78429) inhibitor cocktails. Lysates were cleared at 13,000 rpm for 15 minutes and supernatants were assayed for total protein concentration using the Pierce BCA assay system (Thermo Fisher Cat. No. 23225). For each sample, 10 μg total protein was resolved on a 12% Bis-Tris gel and then transferred to a nitrocellulose membrane. After blocking in 3% BSA in TBST (Tris-buffered Saline with 0.1% Tween-20) for 1 hour at room temperature, membranes were probed with the primary antibody (LS Bio Cat. No. LS-C175665) overnight at 4° C. After incubation with the secondary antibody, the following day membranes were visualized using the SuperSignal™ West Femto substrate (Thermo Fisher Cat. No. 34095). The KRas signal in each lane was normalized to GAPDH and percent degradation was either estimated as less than 25% by visual inspection (C in Table 13) or quantitated relative to the DMSO control lane using BIO-RAD Image Lab 5.2.1, and all data was plotted using GraphPad PRISM 6.07.
DC50 is the half-maximal degradation concentration—i.e., the concentration at which 50% degradation is observed. DMax is the maximum degradation efficacy is achieved—i.e., the maximal degradation observed) degradation data.
Background: Immunoblotting shows a protein as a band on a membrane.

For `C=CC(=O)N1CCN(c2nc(O[C@H](C)CN3CCC(OCCOCC(=O)N[C@H](C(=O)N4C[C@H](O)C[C@H]4C(=O)N[C@@H](C)c4ccc(-c5scnc5C)cc4)C(C)(C)C)CC3)nc3c2CCN(c2cc(O)cc4ccccc24)C3)CC1` [compound 406, (2S,4R)-1-((S)-2-(2-(2-((1-((R)-2-((4-(4-acryloylpiperazin-1-yl)-7-(3-hydroxynaphthalen-1-yl)-5,6,7,8-tetrahydropyrido[3,4-d]pyrimidin-2-yl)oxy)propyl)piperidin-4-yl)oxy)ethoxy)acetamido)-3,3-dimethylbutanoyl)-4-hydroxy-N-((S)-1-(4-(4-methylthiazol-5-yl)phenyl)ethyl)pyrrolidine-2-carboxamide], the “Percent Degradation at Indicated Concentration (μM)” value (“Percent Degradation” for short) runs as follows: (H2030 cells, 0.3 μM) “C (Percent Degradation: C ≤ 35)”; (H2030 cells, 1 μM) “C (Percent Degradation: C ≤ 35)”; (H2030 cells, 3 μM) “C (Percent Degradation: C ≤ 35)”.

Regarding `C=CC(=O)N1CCN(c2nc(NCCC(=O)N(C)CCOc3cc(-c4scnc4C)ccc3CNC(=O)[C@@H]3C[C@@H](O)CN3C(=O)[C@H](c3cc(C)no3)C(C)C)nc3c(F)c(-c4cc(O)cc5ccccc45)c(Cl)cc23)CC1` [compound 338, (2S,4R)-N-(2-(2-(3-((4-(4-acryloylpiperazin-1-yl)-6-chloro-8-fluoro-7-(3-hydroxynaphthalen-1-yl)quinazolin-2-yl)amino)-N-methylpropanamido)ethoxy)-4-(4-methylthiazol-5-yl)benzyl)-4-hydroxy-1-((S)-3-methyl-2-(3-methylisoxazol-5-yl)butanoyl)pyrrolidine-2-carboxamide], the Dmax was at most 35%. The “Percent Degradation” value (H2030, 0.3 μM) is listed as “C (Percent Degradation: C ≤ 35)”. Moreover, the “Percent Degradation” value (H2030, 1 μM) is recorded as “C (Percent Degradation: C ≤ 35)”. Further, for the setting “H2030, 3 μM”, the “Percent Degradation” value was “C (Percent Degradation: C ≤ 35)”.

`C=CC(=O)N1CCN(c2nc(Nc3ccc(OCCOCCOCCOCC(=O)N[C@H](C(=O)N4C[C@H](O)C[C@H]4C(=O)N[C@@H](C)c4ccc(-c5scnc5C)cc4)C(C)(C)C)cc3)nc3c(F)c(-c4cc(O)cc5ccccc45)c(Cl)cc23)CC1` [compound 483, (2S,4R)-1-((2S)-14-(4-((4-(4-acryloylpiperazin-1-yl)-6-chloro-8-fluoro-7-(3-hydroxynaphthalen-1-yl)quinazolin-2-yl)amino)phenoxy)-2-(tert-butyl)-4-oxo-6,9,12-trioxa-3-azatetradecanoyl)-4-hydroxy-N-((S)-1-(4-(4-methylthiazol-5-yl)phenyl)ethyl)pyrrolidine-2-carboxamide] displayed a maximal degradation (Dmax) of at most 35%. Besides, under “H2030, 0.3 μM”, the “Percent Degradation” value was “C (Percent Degradation: C ≤ 35)”. Under “H2030, 1 μM”, the “Percent Degradation” value is recorded as “C (Percent Degradation: C ≤ 35)”. Also, the “Percent Degradation” value (H2030, 3 μM) is “C (Percent Degradation: C ≤ 35)”.

On to `Cc1ncsc1-c1ccc([C@H](C)NC(=O)[C@@H]2C[C@@H](O)CN2C(=O)[C@@H](NC(=O)COCCOCCOCCN(C)C(=O)CCNc2nc(N3CCN(C(=O)C(O)O)CC3)c3cc(Cl)c(-c4c(O)cccc4F)c(F)c3n2)C(C)(C)C)cc1` (atropisomer, axis not shown) [compound 239, (2S4R)-1-((S)-2-(tert-butyl)-18-((6-chloro-4-(4-(2,2-dihydroxyacetyl)piperazin-1-yl)-8-fluoro-7-((R)-2-fluoro-6-hydroxyphenyl)quinazolin-2-yl)amino)-15-methyl-4,16-dioxo-6,9,12-trioxa-3,15-diazaoctadecanoyl)-4-hydroxy-N-((S)-1-(4-(4-methylthiazol-5-yl)phenyl)ethyl)pyrrolidine-2-carboxamide,], for which the “Percent Degradation” value is “C (Percent Degradation: C ≤ 35)” (H2030 cells, 0.3 μM); “C (Percent Degradation: C ≤ 35)” (H2030 cells, 1 μM); “C (Percent Degradation: C ≤ 35)” (H2030 cells, 3 μM). The compound further gave a Dmax (H2030 cells) of at most 35%.

Regarding `C=CC(=O)N1CCN(c2nc(NCCC(=O)N(C)CCOCCOCC(=O)N[C@H](C(=O)N3C[C@H](O)C[C@H]3C(=O)N[C@@H](C)c3ccc(-c4scnc4C)cc3)C(C)(C)C)nc3c(F)c(-c4c(O)cccc4F)c(Cl)cc23)CC1` (atropisomer, axis not shown) [compound 207, (2S,4R)-1-((S)-15-(((S)-4-(4-acryloylpiperazin-1-yl)-6-chloro-8-fluoro-7-(2-fluoro-6-hydroxyphenyl)quinazolin-2-yl)amino)-2-(tert-butyl)-12-methyl-4,13-dioxo-6,9-dioxa-3,12-diazapentadecanoyl)-4-hydroxy-N-((S)-1-(4-(4-methylthiazol-5-yl)phenyl)ethyl)pyrrolidine-2-carboxamide], the “Percent Degradation” value (H2030, 3 μM) is listed as “C (Percent Degradation: C ≤ 35)”.

As for `C=CC(=O)N1CCN(c2nc(NCCC(=O)N(C)CCOCCOCCOCCOCCOCC(=O)N[C@H](C(=O)N3C[C@H](O)C[C@H]3C(=O)N[C@@H](C)c3ccc(-c4scnc4C)cc3)C(C)(C)C)nc3c(F)c(-c4c(O)cccc4F)c(Cl)cc23)CC1` [compound 214, (2S,4R)-1-((S)-24-(((R)-4-(4-acryloylpiperazin-1-yl)-6-chloro-8-fluoro-7-(2-fluoro-6-hydroxyphenyl)quinazolin-2-yl)amino)-2-(tert-butyl)-21-methyl-4,22-dioxo-6,9,12,15,18-pentaoxa-3,21-diazatetracosanoyl)-4-hydroxy-N-((S)-1-(4-(4-methylthiazol-5-yl)phenyl)ethyl)pyrrolidine-2-carboxamide], the Dmax is at most 35%. Also, the “Percent Degradation” value (H2030, 0.3 μM) was “C (Percent Degradation: C ≤ 35)”. The “Percent Degradation” value (H2030, 1 μM) is “C (Percent Degradation: C ≤ 35)”. The “Percent Degradation” value (H2030, 3 μM) is recorded as “C (Percent Degradation: C ≤ 35)”.

In the case of `C=CC(=O)N1CCN(c2nc(NCCC(=O)N(C)CCOCCOCCOCCOc3cc(-c4scnc4C)ccc3CNC(=O)[C@@H]3C[C@@H](O)CN3C(=O)[C@H](c3cc(C)no3)C(C)C)nc3c(F)c(-c4cc(O)cc5ccccc45)c(Cl)cc23)CC1` [compound 344], the greatest degradation seen (Dmax) was at most 35%. For the same compound, the “Percent Degradation” value (H2030, 0.3 μM) was “C (Percent Degradation: C ≤ 35)”. For the same compound, the “Percent Degradation” value (H2030, 1 μM) is given as “C (Percent Degradation: C ≤ 35)”. Further, the “Percent Degradation” value (H2030, 3 μM) is given as “C (Percent Degradation: C ≤ 35)”.

`C=CC(=O)N1CCN(c2nc(OC3CCN(CCOCCOCCOCCOCC(=O)N[C@H](C(=O)N4C[C@H](O)C[C@H]4C(=O)N[C@@H](C)c4ccc(-c5scnc5C)cc4)C(C)(C)C)CC3)nc3c(F)c(-c4cc(O)cc5ccccc45)c(Cl)cc23)CC1` [compound 474, (2S,4R)-1-((2S)-17-(4-((4-(4-acryloylpiperazin-1-yl)-6-chloro-8-fluoro-7-(3-hydroxynaphthalen-1-yl)quinazolin-2-yl)oxy)piperidin-1-yl)-2-(tert-butyl)-4-oxo-6,9,12,15-tetraoxa-3-azaheptadecanoyl)-4-hydroxy-N-((S)-1-(4-(4-methylthiazol-5-yl)phenyl)ethyl)pyrrolidine-2 carboxamide] showed a maximal degradation (Dmax) of at most 35%. Also, the “Percent Degradation” value (H2030, 0.3 μM) was “C (Percent Degradation: C ≤ 35)”. For the same compound, the “Percent Degradation” value (H2030, 1 μM) was “C (Percent Degradation: C ≤ 35)”. In addition, under “H2030, 3 μM”, the “Percent Degradation” value is “C (Percent Degradation: C ≤ 35)”.

`C=CC(=O)N1CCN(c2nc(NCCC(=O)N(C)CCNc3cccc4c3C(=O)N(C3CCC(=O)NC3=O)C4=O)nc3c(F)c(-c4c(O)cccc4F)c(Cl)cc23)CC1` [compound 107, 3-(((S)-4-(4-acryloylpiperazin-1-yl)-6-chloro-8-fluoro-7-(2-fluoro-6-hydroxyphenyl)quinazolin-2-yl)amino)-N-(2-((2-(2,6-dioxopiperidin-3-yl)-1,3-dioxoisoindolin-4-yl)amino)ethyl)-N-methylpropanamide]: for the setting “H2030, 3 μM”, the “Percent Degradation” value was “C (Percent Degradation: C ≤ 35)”.
